Values of other authors as cited in PMC12737022, “Evaluations of Sex Differences in Dosimetry in Rats Following Perfluorohexanesulfonamide (PFHxSA) Oral Exposure” (Toxics, 2025).

Assays:
[1] = parameters: method as in PMID 31078680; conditions: cited from earlier work; for Liver partitioning values: male rats
[2] = parameters: method as in PMID 37756184; conditions: bariatric surgery patients; cited from earlier work
[3] = parameters: method as in PMID 40710967; conditions: SD rats following PFHxSA administration; cited from earlier work

| Structure (SMILES) | Liver partitioning values [1] | Share of the PFAS detected following dosing [3] | also measured |
| --- | --- | --- | --- |
| O=C(O)C(F)(F)C(F)(F)C(F)(F)C(F)(F)C(F)(F)C(F)(F)C(F)(F)F [PFOA, perfluorooctanoic acid, reference compound] | 1.5 to 10.9 |  | Human liver/plasma partitioning Kp [2]: 0.26 |
| O=S(O)C(F)(F)C(F)(F)C(F)(F)C(F)(F)C(F)(F)C(F)(F)F [perfluorohexanesulfinic acid] |  | less than 3% |  |
| O=S(=O)(O)C(F)(F)C(F)(F)C(F)(F)C(F)(F)C(F)(F)C(F)(F)C(F)(F)C(F)(F)F [PFOS, perflurooctanesulfonic acid] | 1.5 to 10.9 |  |  |
| O=C(O)C1OC(NS(=O)(=O)C(F)(F)C(F)(F)C(F)(F)C(F)(F)C(F)(F)C(F)(F)F)C(O)C(O)C1O (stereo not drawn) [PFHxSA-glucuronide] |  | less than 3% |  |
| O=C(O)C(F)(F)C(F)(F)C(F)(F)F [PFBA] |  |  | Liver partitioning summary values ([1]; across both sexes): 0.16–0.44 |
